Source: patent US11414385B2, “Compounds and methods for treating, detecting, and identifying compounds to treat apicomplexan parasitic diseases” (The University of Chicago, priority 2015, dated 2022)

Legend:
[1] = tested on: P. berghei sporozoites, blood and liver stages; experiment: P. berghei sporozoite causal prophylaxis model in mice; type: in vivo, Plasmodium berghei
Procedure: P. berghei sporozoites. The methods that follow are taken directly from^24,25: From laboratory-reared female Anopheles stephensi, isolation, inoculation and viability check Plasmodium berghei sporozoites (luciferase expressing) were obtained and maintained at 18° C. for 17 to 22 days after feeding on malaria-infected Swiss CD-1/ICR mice. From malaria-infected mosquitoes, salivary glands were extracted and sporozoites obtained. Briefly, mosquitoes were separated into head/thorax and abdomen. Thoraxes and heads were triturated with a mortar and pestle and suspended in medium RPMI 1640 containing 1% C57BL/6 mouse serum (Rockland Co, Gilbertsville, Pa., USA). 50-80 heads with glands total were placed into a 0.5 ml Osaki tube on top of glass wool with enough dissection media to cover the heads. Until all mosquitoes had been dissected, the Osaki tube was kept on ice. Sporozoites that were isolated from the same batch of mosquitoes were inoculated into C57BL/6, 2D knock-out and 2D knock-out/2D6 knock-in C57BL/6 mice on the same day to control for biological variability in sporozoite preparations. On day 0, each mouse was inoculated intravenously in the tail vein with approximately 10,000 sporozoites suspended in 0.1 ml volume. They were stained with a vital dye containing fluorescein diacetate (50 mg/ml in acetone) and ethidium bromide (20 μg/ml in phosphate buffered saline; Sigma Chemical Co, St. Louis, Mo., USA) and counted in a haemocytometer to ensure that inoculated sporozoites were viable following the isolation procedure. Viability of the sporozoites ranged from 90 to 100%.
At the time of preparation of the suspension solution, compounds tested in these experiments were dosed based on the body weight. The suspension solution of oral agents, using homogenizer (PRO Scientific Inc, Monroe, Conn., USA) with 10 mm open-slotted generator to homogenize drug powder mixture at 20,000-22,000 rpm for 5 min in ice bath, were prepared in 0.5% (w/v) hydroxyethyl cellulose and 0.2% (0.5% HECT, v/v) Tween-80 in distilled water. […]
All of the in vivo imaging system (IVIS) methods utilized have been described previously. […] Additionally, using a flow cytometry system (FC500 MPL, Beckman Coulter, Miami, Fla., USA), blood-stage infections were measured. […] D-Luciferin potassium salt, (Xenogen, California and Goldbio, St Louis, Mo., USA), the luciferase substrate, was inoculated intraperitoneally into mice at a concentration of 200 mg/kg 15 min before luminescence analysis. […] Using Living Image® 3.0 software, photons emitted from specific regions were quantified.
Parasitemia was measured after days of IVIS imaging. During a total of 30 days, mice were observed and parasitemia level determined using FACs analysis. […]

[2] = tested on: T. gondii Me49 strain cysts; experiment: Established brain cysts in mice (chronic infection); type: in vivo, Toxoplasma gondii; conditions: cysts established >2 months earlier, 12.5-25 mg/kg for 17 days
Procedure: The ability of compounds to reduce cyst burden and prevent encephalitis induced by the Type II strain of T. gondii were tested. Encephalitis was assessed by histological analyses and parasite burdens evaluated by quantitation of cysts.
The oocyst challenge model is ideal for this study because oocysts can be diluted at one time and stored at 4° C. for 12 months without loss of infectivity titer. For treatment of chronic infection there were 5 to 10 mice per group treated 2 months after infection was established by compound in DMSO for parenteral administration administered once per day. Treatment was for 17 days.

[3] = P. berghei, 0.625 mg/kg x3 or 2.5 mg/kg single oral dose

Structure (SMILES): Cc1[nH]c2c(c(=O)c1-c1ccc(Oc3ccc(OC(F)(F)F)cc3)cc1)CCCC2 [JAG21, 2-methyl-3-(4-(4-(trifluoromethoxy)phenoxy)phenyl)-5,6,7,8-tetrahydroquinolin-4(1H)-one]
- P. berghei cure, 3 oral doses ([1]; 3 oral doses (days -1, 0, +1), 0.625 mg/kg): protect and cure
- parasitemia [1, 3]: no parasitemia
- survival at 30 days [1, 3]: 100%
- P. berghei cure, single oral dose ([1]; single dose 2.5 mg/kg, oral, 2.5 mg/kg): cures and cure

Structure (SMILES): Cc1[nH]c2c(c(=O)c1-c1ccc(Oc3ccccc3)cc1)CCCC2 [MJM170]
- effect on numbers of Me49 strain cysts in mice [2]: modestly reduced numbers
- effect on numbers of Me49 strain cysts in mice ([2]; listed as MJM 170): reduces cysts
